Where “and” joins values, the source holds several entries; their conditions need not be identical. Identical values can stand only once. Like-named read-outs stand apart in the source and are kept apart here.
Assays:
[1] = tested on: GL-3; test: Phase II study in Fabry patients, GL-3 levels (kidney, skin, urine, plasma); type: in vivo, Fabry patients (human)
Method: Study Design. A two-arm design was planned. In one arm, eligible patients were given 150 mg of DGJ-HCl every other day for 12 weeks, with an extension up to 48 weeks. In the second arm, escalating doses of 25, 100, and then 250 mg b.i.d. over 6 weeks, followed by 50 mg/day for the remainder of the study.
GL-3 deposits. Skin, kidney and heart biopsies will be performed at baseline, 3 months and six months and evaluated for GL-3 deposits in skin fibroblasts, cardiac myocytes, and various renal cells.
GL-3 levels. […] Urine and plasma GL-3 levels at baseline and after treatment as assessed by liquid chromatography mass spectrometry were available for 10 patients. […] For the few patients that had elevated levels of GL-3 in urine or plasma at baseline, the results were difficult to interpret due to high intra-patient variability.
Skin GL-3 levels at baseline and after treatment as assessed by light and electron microscopy are available for 10 patients.

[2] = Phase Ib twice daily oral dose study, pharmacokinetics; type: in vivo, healthy volunteers (human); details: for half-life: read-out: t½ (converted)
Method: (§1) Study Design and Duration. […] Subjects were housed in the treatment facility from 14 hours prior to dosing until 24 hours after dosing. Meals were controlled by schedule and subjects remained abulatory for 4 hours post drug administration
Pharmacokinetic Sampling. Blood samples (10 mL each) were collected in blood collection tubes containing EDTA before dosing and at the following times thereafter: 0.25, 0.5, 0.75, 1, 1.5, 2, 3, 4, 5, 6, 7, 8, 9, 10, 11 and 12 hours. Blood samples were cooled in an ice bath and centrifuged under refrigeration as soon as possible. Plasma samples were divided into two aliquots and stored at […] pending assay. At the end of the study, all samples were transferred to MDS Pharma Services Analytical Laboratories (Lincoln) for analysis.
Pharmacokinetic parameters were summarised by treatment group using descriptive statistics (arithmetic means, standard deviations, coefficients of variation, sample size, minimum, maximum and median).

[3] = target: T1, mutant (R301Q) α-Gal A (Homo sapiens, UniProt P06280, R301Q); details: oral administration; cited from earlier work
T1 construct: host or cells: major organs of transgenic mice overexpressing R301Q α-Gal A
T1 sequence (P06280 32-429 R301Q): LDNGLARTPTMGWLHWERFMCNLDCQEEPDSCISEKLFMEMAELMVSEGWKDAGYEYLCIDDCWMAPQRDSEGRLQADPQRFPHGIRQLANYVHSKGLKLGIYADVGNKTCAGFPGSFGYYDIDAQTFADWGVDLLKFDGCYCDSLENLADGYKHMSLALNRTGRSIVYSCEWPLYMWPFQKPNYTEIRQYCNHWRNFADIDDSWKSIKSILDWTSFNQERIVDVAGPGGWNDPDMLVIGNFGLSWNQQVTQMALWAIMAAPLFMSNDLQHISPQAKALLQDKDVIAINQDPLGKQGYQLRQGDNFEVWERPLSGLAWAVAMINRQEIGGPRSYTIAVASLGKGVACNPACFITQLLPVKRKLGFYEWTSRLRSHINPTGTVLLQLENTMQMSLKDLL

[4] = Phase I ascending single oral dose study, safety and tolerability; type: in vivo, healthy volunteers (human); details: healthy male subjects, single doses 25 mg through 675 mg
Method: Study Design and Duration. […] Dose escalation to the next dose level (i.e., next group) proceeded following review of safety and tolerability of the previous group(s). Subjects were housed in the treatment facility from 14 hours prior to dosing until 24 hours after dosing. Meals were controlled by schedule and subjects remained abulatory for 4 hours post drug administration.
(§2) Safety and Tolerability Assessments.
Statistical Analysis. Safety data including laboratory evaluations, physical exams, adverse events, ECG monitoring and vital signs assessments were summarized by treatment group and point of time of collection. Descriptive statistics (arithmetic mean, standard deviation, median, minimum and maximum) were calculated for quantitative safety data as well as for the difference to baseline. Frequency counts were compiled for classification of qualitative safety data. In addition, a shift table describing out of normal range shifts was provided for clinical laboratory results. A normal-abnormal shift table was also be presented for physical exam results and ECGs.
Concomitant medications and medical history were listed by treatment.

[5] = tested on: mutant α-Gal A (R301Q or Q279E); details: lymphoblasts from Fabry patients with R301Q or Q279E mutations; cited from earlier work
[6] = target: T2, human mutant α-Gal A (R301Q) (Homo sapiens, UniProt P06280, R301Q); details: neutral pH; cited from earlier work
T2 construct: Tissue lysates were prepared by homogenizing about 50 mg tissue in assay buffer; from tissue; host or cells: heart, kidney, skin, liver and spleen of R301Q Tg/KO mice (human transgene, mouse α-Gal A knocked out)
T2 sequence (P06280 32-429 R301Q): T1 sequence (P06280 32-429 R301Q)

[7] = Phase Ib twice daily oral dose study, safety and tolerability; type: in vivo, healthy volunteers (human)
Method: as §1, §2
WBC α-GAL A Enzymatic Activity Sampling. Blood samples (10 mL each) were collected in blood collection tubes containing EDTA and WBC extracted before dosing and at the following times thereafter: 100 hours, 150 hours, and 336 hours. Samples were treated as described above, and WBC α-Gal A enzymatic activity levels were determined as described in Desnick, R. J. (ed) Enzyme therapy in genetic diseases. Vol 2. Alan R Liss, New York, pp 17-32. Statistical Analysis. Safety data including laboratory evaluations, physical exams, adverse events, ECG monitoring and vital signs assessments were summarized by treatment group and point of time of collection. Descriptive statistics (arithmetic mean, standard deviation, median, minimum and maximum) were calculated for quantitative safety data as well as for the difference to baseline. Frequency counts were compiled for classification of qualitative safety data. In addition, a shift table describing out of normal range shifts was provided for clinical laboratory results. A normal-abnormal shift table was also presented for physical exam results and ECGs. […]

[8] = human, plasma, oral, 50 mg, 50 mg bid, Day 1
[9] = human, plasma, oral, 50 mg, 50 mg bid, Day 7
[10] = human, plasma, oral, 150 mg, 150 mg bid, Day 1
[11] = human, plasma, oral, 150 mg, 150 mg bid, Day 7

Question: For `OCC1NCC(O)C(O)C1O` (stereo not drawn) [DGJ, 1-deoxygalactonojirimycin], which “kidney GL-3 by electron microscopy, one patient” value ([1]; 12 weeks of treatment, mesangial cells, glomerular endothelium, distal tubules) is on record?
Answer: observed decrease in GL-3

Question: What about the “kidney GL-3 by electron microscopy, second patient” value ([1]; 24 weeks of treatment, same kidney cell types, not independently conclusive (lower baseline GL-3)) of the same compound?
Answer: showed a decrease of GL-3 levels

Question: What about the “GL-3 in other kidney cell types including interstitial capillaries” value ([1]; both patients) of the same compound?
Answer: the decreases were not significant

Question: What about the “urine and plasma GL-3 levels by liquid chromatography mass spectrometry” value ([1]; most of 10 patients, baseline and after treatment) of the same compound?
Answer: normal or near normal both before and after treatment

Question: And the “skin GL-3 levels by light and electron microscopy” value ([1]; seven of 10 patients, baseline and after treatment)?
Answer: normal or near normal both before and after treatment

Question: What about the “12 h cumulative renal excretion” value ([2]; 50 mg bid, Day 1) of the same compound?
Answer: 16% and 16 ± 6%

Question: And the “12 h cumulative renal excretion” value ([2]; 50 mg bid, Day 7)?
Answer: 48% and 48 ± 7%

Question: What about the Cmin ([2]; 50 mg bid, Day 7) of the same compound?
Answer: 0.4 ± 0.03 µM

Question: What about the “12 h cumulative renal excretion” value ([2]; 150 mg bid, Day 1) of the same compound?
Answer: 42% and 42 ± 7%

Question: And the “12 h cumulative renal excretion” value ([2]; 150 mg bid, Day 7)?
Answer: 60% and 60 ± 5%

Question: What about the Cmin ([2]; 150 mg bid, Day 7) of the same compound?
Answer: 1.2 ± 0.1 µM

Question: What about the “time of peak concentrations, on average” value ([2]; all dose levels (50 and 150 mg b.i.d.)) of the same compound?
Answer: approximately 3 hours

Question: And the “increase of Cmax with dose” value ([2]; doses increased from 50 mg to 150 mg)?
Answer: dose-proportional manner

Question: And the concentration at 7 day ([2]; human, plasma, oral, 50 mg b.i.d., Day 7, read-out: Cmin)?
Answer: 0.4 µM

Question: What about the Cmax [2, 8] of the same compound?
Answer: 2.3 ± 0.3 µM

Question: And the Tmax [2, 8]?
Answer: 2.9 ± 0.4 h

Question: And the Cmax [2, 9]?
Answer: 3.9 ± 0.5 µM

Question: And the Tmax [2, 9]?
Answer: 2.5 ± 0.4 h

Question: What about the Cmax [2, 10] of the same compound?
Answer: 11.3 ± 1.5 µM

Question: And the Tmax [2, 10]?
Answer: 3.1 ± 0.4 h

Question: What about the Cmax [2, 11] of the same compound?
Answer: 10.8 ± 1.4 µM

Question: And the Tmax [2, 11]?
Answer: 2.9 ± 0.4 h

Question: And the half-life ([2]; human, plasma, oral, 50 mg bid, Day 1)?
Answer: 2.5 h

Question: And the half-life ([2]; human, plasma, oral, 150 mg bid, Day 1)?
Answer: 2.4 h

Question: And the “enzyme activity in major organs” value [3]?
Answer: substantially elevated

Question: What about the safety and tolerability [4] of the same compound?
Answer: safe and well tolerated

Question: What about the “enhancement of mutant enzyme activity” value [5] of the same compound?
Answer: ≥ 45%

Question: And the “in vitro stability of mutant α-Gal A” value [6]?
Answer: effectively increased

Question: And the “adverse events (AEs)” value ([7]; after 50 mg b.i.d. or 150 mg b.i.d.)?
Answer: no subject presented with AEs

Question: What about the safety and tolerability ([7]; healthy male subjects, 50 mg b.i.d. and 150 mg b.i.d., seven days) of the same compound?
Answer: safe and well tolerated

Reference: US20100113517A1, “METHOD FOR THE TREATMENT OF FABRY DISEASE USING PHARMACOLOGICAL CHAPERONES” (AMICUS THERAPEUTICS, INC., priority 2007, published 2010)
